Source: patent US8710089B2, “Triazole derivatives as ghrelin analogue ligands of growth hormone secretagogue receptors” (Zentaris GmbH, priority 2005, dated 2014)
“And” between values parts separate entries of the source, which are not always exact repeats. Identical values can stand only once. Non-standard residues stand in square brackets, D forms with d. Residues, ends and D or L forms follow the SMILES beside them. dTrp(2-Me) = Cc1[nH]c2ccccc2c1C[C@@H](N)C(=O)O

What was measured:
[1] = system: GH concentration in the plasma of male rat pups; assay: In vivo GH concentration in the plasma of male rat pups; parameters: species or system rat (Sprague-Dawley); details: rat pup plasma
Method: IV) Assaying In Vivo GH Concentration in the Plasma of Male Rat Pups
GH plasma concentrations of male rat pubs were assayed to characterize the modulation effect (antagonistic or agonistic) of the compounds of the invention being GHS receptor analogue ligands.
In principle, assaying in vivo GH concentration in rat plasma was performed according to Torsello et al. (Eur. J. Pharmacol. 1998, 360: 123-129).
Male Sprague-Dawley rat pups (Charles River, Calco, Italy) were separated on postnatal day seven from their mothers and randomly redistributed to the dams, so that each one nurtured ten to twelve pups. On postnatal day ten, the pups were again separated from their mothers.
The compounds to be tested were dissolved in solvent [DMSO (0.4% of total volume), distilled water (4% of total volume), brought to the final volume with physiological saline].
One hour after separation from their mothers, the pups were given isovolumetric amounts of the compounds to be tested (160 μg/kg body weight s.c.) at time −10 min and then administered with hexarelin (80 μg/kg body weight s.c.) or solvent at time 0 min before being killed 15 min later by decapitation. Trunk blood was collected, immediately centrifuged and plasma samples were stored at −20° C. until assayed for the determination of GH concentrations.
Plasma GH concentrations were measured using a rat growth hormone enzyme immunoassay kit (SPIbio, France, cat. no. 589601) according to the manufacturer's instructions. Values are expressed in terms of NIDDK rat-GH-RP2 standard (potency 2 IU/mg) as ng/mL of plasma
The limit of detection calculated as the concentration producing 15% displacement of initial tracer was 0.5 ng/ml; intra-assay and inter-assay coefficient of variation are 4% (n=24) and 14% (n=9).
In the following table 3 results obtained for selected compounds of the invention are presented.

[2] = molecular target: T1, human GHS-R 1a (Homo sapiens, UniProt Q92847); assay: GHS-R 1a receptor-ligand binding assay (membrane preparations from transfected LLC PK-1 cells); details: displacement of 125I-His9-ghrelin (60 pM); membranes of LLC PK-1 cells transfected with human GHS-R 1a; mean of at least two independent experiments in triplicates
T1 construct: expressed in transfected cells; host or cells: LLC PK-1 porcine renal epithelial cells (ECACC No. 86121112), isolated plasma membranes
T1 sequence (Q92847 whole entry): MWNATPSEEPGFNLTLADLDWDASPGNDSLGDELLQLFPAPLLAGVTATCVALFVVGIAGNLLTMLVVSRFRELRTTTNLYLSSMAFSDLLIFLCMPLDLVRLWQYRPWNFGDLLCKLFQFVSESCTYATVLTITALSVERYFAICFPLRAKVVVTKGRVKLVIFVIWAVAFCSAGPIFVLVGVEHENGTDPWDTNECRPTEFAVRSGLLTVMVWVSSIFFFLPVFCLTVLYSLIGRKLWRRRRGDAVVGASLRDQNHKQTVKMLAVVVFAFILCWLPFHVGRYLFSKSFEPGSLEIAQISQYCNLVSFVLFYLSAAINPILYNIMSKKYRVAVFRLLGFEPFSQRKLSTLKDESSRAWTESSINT
How it was run: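 Membranes from LLC PK-1 cells expressing human GHS-R 1a incubated 60 min at 25 °C in 50 mM Tris pH 7.3, 5 mM MgCl2, 2.5 mM EDTA, bacitracin with 60 pM 125I-ghrelin and competitor; nonspecific binding with 10^-6 M ghrelin; filtration read-out.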

[3] = system: young-adult male Sprague-Dawley rats; assay: Feeding behavior (food intake) of young-adult male rats; assay type: in vivo, rat (Sprague-Dawley)
Method: V) Assaying the Feeding Behavior (Food Intake) of Young-Adult Male Rats
The impact of compounds of the invention being GHS receptor analogue ligands on the feeding behaviour, i.e. food intake, of young-adult male rats was assayed.
In principle, assaying the feeding behavior (food intake) of young-adult male rats was performed according to Torsello et al. (Eur. J. Pharmacol. 1998, 360: 123-129).
For the assay, young-adult male Sprague-Dawley rats (Charles River, Calco, Italy), weighing 200-250 g, were used.
Rats had 1 week of acclimation in individual home cages, and animal room conditions (22±2° C., 65% humidity, artificial light from 08.00 to 20.00 h). The following week, they were daily trained to mimic the experimental procedure. Rats maintained free access to dry pellets and tap water throughout the whole experimental period. At the end of training, rats were administered (around 10.00-11.00 a.m.) subcutaneously with the compounds to be tested (160 μg/kg body weight) and/or hexarelin (80 μg/kg body weight) and/or solvent [DMSO (0.4% of total volume), distilled water (4% of total volume), brought to the final volume with physiological saline].
Hexarelin was used to study the effects of the compounds to be tested on stimulated feeding behavior. Immediately after the injections, the animals were returned to their home cages, which contained a known amount of standard rat chow and ad libitum water. Every hour for the following 6 hours, the remaining food was carefully collected and weighed to the nearest 0.1 g. Food intake was normalized for the body weight of the rats and expressed as grams of food eaten per 100 g body weight of rats.
In the following table 4 results obtained for selected compounds of the invention are presented.

[4] = compound 160 μg/kg s.c. at -10 min + hexarelin 80 μg/kg s.c. at 0 min, killed 15 min later
[5] = compound alone 160 μg/kg body weight s.c. at -10 min, solvent at 0 min, killed 15 min later
[6] = compound 160 μg/kg s.c. + hexarelin 80 μg/kg s.c.
[7] = compound alone, 160 μg/kg body weight s.c.

Structure (SMILES) | GH concentration [1, 4] | GH concentration [1, 5] | GH concentration ([1]; hexarelin alone 80 μg/kg body weight s.c.) | IC50 [2] | Cumulative food intake (after 2 hours) [3, 6] | Cumulative food intake (after 6 hours) [3, 6] | Cumulative food intake (after 2 hours) [3, 7] | Cumulative food intake (after 6 hours) [3, 7]
COc1ccc(Cn2c(CCc3c[nH]c4ccccc34)nnc2[C@H](N)Cc2c[nH]c3ccccc23)c(OC)c1 [compound 74, (R)-1-(5-(2-(1H-indol-3-yl)ethyl)-4-(2,4-dimethoxybenzyl)-4H-1,2,4-triazol-3-yl)-2-(1H-indol-3-yl)ethanamine] | 194.564 ± 7.658 ng/mL | 10.571 ± 0.791 ng/mL | – | – | – | – | – | –
CC(C)(N)C(=O)N[C@H](Cc1c[nH]c2ccccc12)c1nnc(Cc2ccccc2)n1Cc1ccccn1 [compound 39, (R)—N-(1-(5-benzyl-4-(pyridin-2-ylmethyl)-4H-1,2,4-triazol-3-yl)-2-(1H-indol-3-yl)ethyl)-2-amino-2-methylpropanamide] | 82.481 ± 11.530 ng/mL and 82.481 ± 11.53 ng/mL | 5.509 ± 1.950 ng/mL and 5.509 ± 1.95 ng/mL | – | – | – | – | – | –
Cc1[nH]c2ccccc2c1C[C@@H](NC(=O)[C@@H](N)Cc1cnc[nH]1)C(=O)N[C@@H](C)C(=O)N[C@@H](Cc1c[nH]c2ccccc12)C(=O)N[C@H](Cc1ccccc1)C(=O)N[C@@H](CCCCN)C(N)=O [hexarelin, Hexarelin, reference compound] (H-H[dTrp(2-Me)]AW[dF]K-NH2) | – | – | 170.101 ± 13.226 ng/mL and 253.820 ± 12.268 ng/mL and 162.839 ± 21.095 ng/mL | – | – | – | – | –
COc1ccc(Cn2c(Cc3ccccc3)nnc2[C@@H](Cc2c[nH]c3ccccc23)NC(=O)C(C)(C)N)cc1 [compound 13, (R)—N-(1-(4-(4-methoxybenzyl)-5-benzyl-4H-1,2,4-triazol-3-yl)-2-(1H-indol-3-yl)ethyl)-2-amino-2-methylpropanamide] | – | – | – | 138 nM | 0.731 ± 0.318 g food/100 g body weight | 0.792 ± 0.337 g food/100 g body weight | 0.057 ± 0.057 g food/100 g body weight | 0.167 ± 0.167 g food/100 g body weight
COc1ccc(Cn2c(CCc3c[nH]c4ccccc34)nnc2[C@@H](Cc2c[nH]c3ccccc23)NC(=O)c2ccccn2)cc1 [compound 80, (R)—N-(1-(5-(2-(1H-indol-3-yl)ethyl)-4-(4-methoxybenzyl)-4H-1,2,4-triazol-3-yl)-2-(1H-indol-3-yl)ethyl)picolinamide] | – | – | – | 1.9 nM | 0.475 ± 0.196 g food/100 g body weight | 0.733 ± 0.238 g food/100 g body weight | 0.145 ± 0.143 g food/100 g body weight | 0.346 ± 0.159 g food/100 g body weight
CC(C)(N)C(=O)N[C@H](Cc1c[nH]c2ccccc12)c1nnc(CCCc2c[nH]c3ccccc23)n1CCc1c[nH]c2ccccc12 [compound 24, (R)—N-(1-(4-(2-(1H-indol-3-yl)ethyl)-5-(3-(1H-indol-3-yl)propyl)-4H-1,2,4-triazol-3-yl)-2-(1H-indol-3-yl)ethyl)-2-amino-2-methylpropanamide] | – | – | – | 29 nM | 0.586 ± 0.252 g food/100 g body weight | 0.912 ± 0.359 g food/100 g body weight | 0.008 ± 0.008 g food/100 g body weight | 0.215 ± 0.200 g food/100 g body weight
COc1ccc(Cn2c(CCc3c[nH]c4ccccc34)nnc2[C@@H](Cc2c[nH]c3ccccc23)NC(=O)C2CNCCN2)c(OC)c1 (mixture of isomers) [compound 72] | – | – | – | 32 nM | 0.634 ± 0.33 g food/100 g body weight | 0.746 ± 0.31 g food/100 g body weight | 0.008 ± 0.003 g food/100 g body weight | 0.011 ± 0 g food/100 g body weight
COc1ccc(Cn2c(CCc3c[nH]c4ccccc34)nnc2[C@@H](Cc2c[nH]c3ccccc23)NC(=O)c2ccccc2N)c(OC)c1 [compound 38, (R)—N-(1-(5-(2-(1H-indol-3-yl)ethyl)-4-(2,4-dimethoxybenzyl)-4H-1,2,4-triazol-3-yl)-2-(1H-indol-3-yl)ethyl)-2-aminobenzamide] | – | – | – | 112 nM | 0.002 ± 0.002 g food/100 g body weight | 0.478 ± 0.141 g food/100 g body weight | 0.001 ± 0 g food/100 g body weight | 0.076 ± 0.096 g food/100 g body weight
CC(C)(N)C(=O)N[C@H](Cc1c[nH]c2ccccc12)c1nnc(Cc2ccccc2)n1Cc1ccc(F)cc1 [compound 30, (R)—N-(1-(4-(4-fluorobenzyl)-5-benzyl-4H-1,2,4-triazol-3-yl)-2-(1H-indol-3-yl)ethyl)-2-amino-2-methylpropanamide] | – | – | – | 171 nM | 1.350 ± 0.177 g food/100 g body weight | 1.449 ± 0.213 g food/100 g body weight | 0.264 ± 0.244 g food/100 g body weight | 0.277 ± 0.246 g food/100 g body weight
COc1ccc(Cn2c(CCc3ccccc3)nnc2[C@@H](Cc2c[nH]c3ccccc23)NC(=O)[C@H]2CCCCN2)cc1 [compound 49, (R)—N—((R)-1-(4-(4-methoxybenzyl)-5-phenethyl-4H-1,2,4-triazol-3-yl)-2-(1H-indol-3-yl)ethyl)piperidine-2-carboxamide] | – | – | – | – | 0.057 ± 0.037 g food/100 g body weight | 0.558 ± 0.212 g food/100 g body weight | 0.004 ± 0.004 g food/100 g body weight | 0.004 ± 0.004 g food/100 g body weight
CC(C)(N)C(=O)N[C@H](Cc1c[nH]c2ccccc12)c1nnc(CCc2c[nH]c3ccccc23)n1CCc1c[nH]c2ccccc12 [compound 17, (R)—N-(1-(4,5-bis(2-(1H-indol-3-yl)ethyl)-4H-1,2,4-triazol-3-yl)-2-(1H-indol-3-yl)ethyl)-2-amino-2-methylpropanamide] | – | – | – | 156 nM | 0.0501 ± 0.049 g food/100 g body weight | 0.846 ± 0.411 g food/100 g body weight | 0.001 ± 0.001 g food/100 g body weight | 0.2661 ± 0.166 g food/100 g body weight
CCc1ccc(Cn2c(CCc3ccccc3)nnc2[C@@H](Cc2c[nH]c3ccccc23)NC(=O)Cc2ccccn2)cc1 [compound 82, (R)—N-(1-(4-(4-ethylbenzyl)-5-phenethyl-4H-1,2,4-triazol-3-yl)-2-(1H-indol-3-yl)ethyl)-2-(pyridin-2-yl)acetamide] | – | – | – | 51 nM | – | – | – | –
